Results reported in patent publication US20170129916A1, “NOVEL BETULINIC PROLINE IMIDAZOLE DERIVATIVES AS HIV INHIBITORS” (HETERO RESEARCH FOUNDATION, priority 2014, published 2017).

Key:
[1] = test system: HIV-1 strains, for e.g., 92HT599; test: Antiviral activity: p24 estimation in MT-2 cells infected with HIV-1; format: cell-based; conditions: Human immunodeficiency virus 1, MT2, MT-2 cells infected with HIV-1, p24, ~96 hours
In short: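 MT-2 cells infected with HIV-1 (e.g. 92HT599), plated at 30,000 cells/well with compound (DMSO ≤1%) and incubated ~96 h. Supernatant p24 quantified by kit; percent inhibition relative to vehicle controls.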

Experimental for in vitro: On day 1 calculate the number of cells required for the assay and seed 3×10^4 cells in 200 μl per well. Weigh the compound and dissolve it in DMSO to get 10 mM stock which is further diluted to 3 mM and 1 mM. The drugs from these stocks were added to plate to get final concentration of 100 μM, 30 μM and 10 μM. […] Incubate for 4 days in 5% CO2 incubator at 37° C. On day 4, 100 μl of medium was removed from each well without disturbing the cells. Add 10 μl of MTT reagent and incubate for 4 hours at 5% CO2 incubator at 37° C. for formation of crystals. Add 200 μl of 0.1N acidic isopropanol to dissolve the crystals and read the plate at 590 nm.

C=C(C)[C@@H]1CC[C@]2(C(=O)N3CCC[C@H]3c3nc(-c4ccc(OC)c(F)c4)c[nH]3)CC[C@]3(C)[C@H](CC[C@@H]4[C@@]5(C)CC[C@H](OC(=O)[C@H]6C[C@@H](C(=O)O)C6(C)C)C(C)(C)[C@@H]5CC[C@]43C)[C@@H]12 [Compound 25, (1R,3S)-3-((((1R,3aS,5aR,5bR,7aR,9S,11aR,11bR,13aR,13bR)-3a-((S)-2-(4-(3-fluoro-4-methoxyphenyl)-1H-imidazol-2-yl)pyrrolidine-1-carbonyl)-5a,5b,8,8,11a-pentamethyl-1-(prop-1-en-2-yl)icosahydro-1H-cyclopenta[a]chrysen-9-yl)oxy)carbonyl)-2,2-dimethylcyclobutane-1-carboxylic acid]
inhibition at 0.1 µM ([1]; 0.1 μM): 89%
inhibition at 1 µM ([1]; 1 μM): 99%
viability at 4 days, 10 μM (in vitro): 65%
viability at 4 days, 30 μM (in vitro): 32%
viability at 4 days, 100 μM (in vitro): 11%
